Data taken from patent publication US9272035B2, “Methods and compositions using PDE4 inhibitors for the treatment and management of autoimmune and inflammatory diseases” (Celgene Corporation, priority 2011, dated 2016).
Several values for one entry are separate records, joined by “and”; a condition that tells them apart may be missing. Identical values can stand only once. Entries after “also recorded” stand apart in the source; their conditions may differ. Like-named read-outs stand apart in the source and are kept apart here.

What was measured:
[1] = tested on: rheumatoid arthritis synovial fibroblasts stimulated with IL-1, IL-6 and IL-6R; test: IL-7 gene expression assay in synovial fibroblasts; type: cell-based, human
Protocol: (§1) IL-7 Gene Expression Assay: […] Normal primary human chondrocytes and rheumatoid arthritis synovial fibroblasts purchased from Asterand (Detroit, Mich.) were thawed into a T-75 flask and cultured for 2-3 weeks to reach confluency. The media was 20% premium non-heat inactivated FBS-DMEM/F-12 (Invitrogen 11330-032)+1% pen/strep and 1% L-Glutamine. […] Upon reaching 90% confluency (usually in 1-2 days post-plating), the cells were serum starved for 20 hours by replacing the complete media with 2 ml serum-free media. The cells were treated with the test compounds for 1 hour at 37° C. […] The cells were then washed with cold PBS. Ribonucleic acid (RNA) was isolated by adding 600 μl RLT lysis buffer (Qiagen RNAEasy kit cat#74104), passing the cells through the Qiashredder (Qiagen cat#23800) followed by RNA isolation according to manufacturers' instructions (Qiagen RNAEasy kit). Purified RNA was reverse transcribed into cDNA with thermal cycler for real-time reverse transcriptase polymerase chain reaction (RTPCR) analysis. Interleukin-7 gene expression assays were carried out using the 7500 Real Time PCR system. A GAPDH gene expression assay control was run for each sample and was used as a normalization control.

[2] = cited from earlier work
[3] = tested on: Human peripheral blood total T cells stimulated with anti-CD3 antibody; test: Cytokine and chemokine production by anti-CD3-stimulated T cells (cytometric bead array, Luminex 100); type: cell-based
Protocol: (§2) Cytokine and chemokine protein levels were analyzed by cytometric bead array on a Luminex 100. CAIA model: […] Compound A and ETN were administered once daily on days 3-13. […] Both hind paws (left and right) of each animal were examined for signs of arthritogenic responses in blinded fashion. Arthritic reactions were scored and recorded according to a 0-4 scale in ascending order of severity. Hind paw thickness was measured in mm using a Mitutoyo Electronic Digital Caliper.

[4] = tested on: mAB/LPS-induced experimental arthritis; test: Antibody-induced arthritis in mice (mAb/LPS model, 11 treatment days)
[5] = tested on: mAB/LPS-induced experimental arthritis; test: mAB/LPS-induced experimental murine arthritogenic model, paw thickness (five treatment days); type: in vivo, BALB/c male mice
Protocol: The mice were administered with 1, 5 and 25 mg/kg once daily oral (PO) gavage throughout five successive treatment days.

[6] = tested on: mAB/LPS-induced experimental arthritis; test: Histopathological evaluation of the tibiotarsal joint of arthritic mice; type: in vivo; set-up: key to Fibrin deposition / Inflammatory infiltration in the synovial membrane / Pannus formation (reflected by proliferation of granulation tissue) / Cartilage disruption / Hyaline cartilage destruction (reflected by resorption/erosion in the cartilage) / Subchondral bone destruction (reflected by resorption/erosion by osteoclasts and loss of bone) / Overall assessment: “determined as arthritis” / Synovial hyperplasia / Synovial villus formation: 0=unremarkable; 1=minimal; 2=mild; 3=moderate; 4=marked; conditions: 25 mg/kg
Protocol: Compound A), total 16 animals were tested with Vehicle Control or 25 mg/kg of (+) isomer for histopathological evaluation. […] Each limb from the middle of the tibia and distally, to include the ankle joint, i.e., the joint between the leg and foot (tibial-tarsus joint), was trimmed mid-longitudinally, and both halves were embedded in paraffin and slides of 6 micron thickness were cut and stained by hematoxylin and eosin. Histopathological changes in the joints were described and scored, using semiquantitative grading of five grades (0-4), taking into consideration the severity of the changes (0=unremarkable, 1=minimal, 2=mild, 3=moderate, 4=marked). […] All typical ranges of changes characteristically seen in this arthritis were noted.

[7] = tested on: collagen antibody-induced arthritis; test: Mouse model of collagen antibody-induced arthritis (CAIA); type: in vivo, Male BALB/c mice
Protocol: as §2

[8] = Pharmacokinetic data for study drugs; set-up: species or system RA patients; conditions: human, in vivo; for concentration at 7 day: read-out: Cmin
[9] = tested on: normal primary human chondrocytes stimulated with IL-1, IL-6 and IL-6R; test: IL-7 gene expression assay in chondrocytes; type: cell-based
Protocol: as §1

[10] = tested on: stimulated primary human normal chondrocytes; test: Cell surface protein expression assay (flow cytometry); type: cell-based
Protocol: Cell Surface Protein Expression Assay: Normal primary human chondrocyte were thawed into a T-75 flask and grown for 2-3 weeks to reach confluency in 20% premium non-heat inactivated FBS-DMEM/F-12 (Invitrogen 11330-032)+1% pen/strep and 1% L-Glutamine. The cells were plated (1.0×10^6 cells/10 ml of complete media) in a 100×20 mm tissue culture plate. The next day, the media was replaced with 10 ml serum-free media for 20 min to serum starve the cells. Compound A (0.1-10 μM) was added for 1 hour at 37° C. (0.25% final DMSO). In addition, cytokines IL-1β (10 ng/ml), IL-6 (10 ng/ml), and IL-6R (20 ng/ml) were added and the cells continued incubation overnight (18 hours) at 37° C. The cells were harvested by a non-enzymatic cell dissociation solution (Millipore S-004-B) then washed once in cold stain buffer (BD Pharmigen 554656) at 300×g for 5 minutes. The cells were resuspended and aliquoted into three 5 ml round bottom tubes plus two additional aliquots for control. The cells were washed again in cold stain buffer at 300×g for 5 minutes. The cells were stained with PE mouse anti-human: CD54 (ICAM-1) (BD Pharmigen 555511) and Integrin αVβ3 anti (Millipore MAB1976H). The samples were vortexed and incubated for 30 minutes at 4° C. while being protected from light. […] After a final wash, 500 μl of stain buffer was added to each sample and analyzed by flow cytometry.

Human bone marrow cells = test: Osteoclastogenesis induced by dexamethasone and Vitamin D; type: cell-based; conditions: 10 nM dexamethasone and 10 nM Vitamin D; day 7
Protocol: Human bone marrow cells were treated with Compound A and with 10 nM dexamethasone and 10 nM Vitamin D to differentiate cells into osteoclasts. Fresh media and Compound A were added every 3 days. At day 7 supernatant was collected and adherent cells were isolated to obtain RNA. Day 7 cells were stained with TRAPS and the number of osteoclasts was counted.

[11] = tested on: Normal human osteoblast cells (nHOST); test: Osteoblast production of RANKL and OPG (ELISA); type: cell-based; conditions: 7 days with 10 nM dexamethasone and 10 nM Vitamin D
Protocol: Normal human osteoblast cells (nHOST, source: Lonza) were plated in 6 well plates and incubated overnight for cell attachment. Cells were treated for 7 days with Compound A and with 10 nM dexamethasone and 10 nM Vitamin D. Compound and media was refreshed every 3-4 days. On Day 7 supernatent was collected for RANKL and OPG by ELISA.

[12] = tibiotarsal joint, grade 0-4, individual animals No. 25-32

For `CN(Cc1cnc2nc(N)nc(N)c2n1)c1ccc(C(=O)N[C@@H](CCC(=O)O)C(=O)O)cc1` [MTX, methotrexate], the IL-7 gene expression ([1]; comparators) is listed as “no significant effects”, the “Cmax” value ([2]; Depending on RA patients) is listed as 300 to 1040 ng/mL and the “maximum plasma concentration (Cmax)” value [2] is listed as 400 ng/mL.

In the case of etanercept, the “IC50, IL-13 and IP-10” value ([3]; anti-CD3 antibody, 2 days) is reported as 0.016 to 0.062 µg/mL, the “IC50, TNF-α” value ([3]; anti-CD3 antibody, 2 days) is reported as 0.0015 µg/mL and the IL-7 gene expression ([1]; comparators) is reported as “no significant effects”. For the same compound, the “Cmax (ng/ml)” value ([2]; RA patient 6 months 25-mg biweekly) was 3000 (1700 to 5600) ng/ml, the “Cmax (ng/ml)” value ([2]; RA patients 50-mg weekly) was “weekly: 2400 ± 1500 ng/ml” and the “Cmin” value ([2]; RA patients) was 1200 ± 700 ng/mL. For the same compound, the “maximum plasma concentration (Cmax)” value [2] was 1600 ng/mL, the Bioavailability ([2]; in vivo) was 76% and the “mean group arthritogenic scoring value of both hind paws” value ([4]; 6.25 mg/kg, p<0.001 vs. Vehicle Control, study days 7, 9, 11 and 14) was “highly to extremely statistically lower (p<0.01 & p<0.001, respectively)”.

With `CCOc1cc([C@@H](CS(C)(=O)=O)N2C(=O)c3cccc(NC(C)=O)c3C2=O)ccc1OC` [Compound A, (S)-N-(2-(1-(3-ethoxy-4-methoxyphenyl)-2-(methylsulfonyl)ethyl)-1,3-dioxoisoindolin-4-yl)acetamide] the “hind paw thickness (suppression of paw swelling)” value ([5]; 5 mg/kg PO once daily, limited to Day 9, vs. Vehicle Control) was “A lesser extent (p<0.05 vs. Vehicle Control)”, the “hind paw thickness (suppression of paw swelling)” value ([5]; 25 mg/kg PO once daily, vs. Vehicle Control) was “highly statistically significant (p<0.01 vs. Vehicle Control) and constant suppression of paw swelling; also recorded: statistically significant reduction of paw swelling” and the “arthritis by histopathological evaluation” value ([6]; all samples from treated animals) was “practically no existing arthritis”. The Cartilage disruption [6, 12] was 0, the Fibrin deposition [6, 12] was 0 (6×) and 1 (2×) and the “Hyaline cartilage destruction (reflected by resorption/erosion in the cartilage)” value [6, 12] was 0. The “Inflammatory infiltration in the synovial membrane” value [6, 12] was 0, the “Overall assessment: “determined as arthritis”” value [6, 12] was 0 and the “Pannus formation (reflected by proliferation of granulation tissue)” value [6, 12] was 0. The “Subchondral bone destruction (reflected by resorption/erosion by osteoclasts and loss of bone)” value [6, 12] was 0, the Synovial hyperplasia [6, 12] was 0 and the Synovial villus formation [6, 12] was 0. For the same compound, the “IC50s, production of all T cell cytokines and chemokines measured (IL-2, IL-4, IL-13, IFN-γ, TNF-α, CXCL10, CCL3, and CCL4)” value ([3]; anti-CD3 antibody, 2 days, range over all analytes) was 0.015 to 0.36 µg/mL, the “inhibition of IL-2, IL-4, IL-13, IFN-γ, TNF-α, CXCL10, CCL3, and CCL4” value ([3]; human T cells) was “resulted in inhibition” and the “arthritis by histopathological analysis” value ([7]; 25 mg/kg) was “practically no existing arthritis”. The “hind-paw arthritic reaction scores and thickness” value ([7]; 5 and 25 mg/kg orally once daily on days 3-13) was “significantly reduced (p<0.01)”, the “synovial hyperplasia, synovial villus formation, fibrin deposition, inflammatory infiltration in the synovial membrane, pannus formation, cartilage disruption, and subchondral bone destruction” value ([7]; high dose) was “inhibited” and the Cmax ([8]; 20-mg, day-7) was 419 ng/mL. The concentration at 7 day ([8]; 20-mg, day-7) was 4.9 ng/mL, the IL-7 gene expression ([9]; 0.1-10 μM, normal primary human chondrocytes) was “significantly inhibited” and the “inhibition of IL-7 gene expression compared with methotrexate and etanercept” value ([9]; dose ranges encompassing the respective Cmax of MTX and ETC) was “more effective inhibitor of IL-7 gene expression than methotrexate and etanercept”. The IL-7 gene expression ([1]; 0.1-10 μM) was “significantly inhibited”, the “alpha-v-beta-3 (αvβ3) integrin expression” value [10] was “inhibited expression” and the “intercellular adhesion molecule 1 (ICAM-1) expression” value [10] was “inhibited expression”. The “osteoclast formation (osteoclastogenesis)” value (Human bone marrow cells) was “inhibit osteoclast formation; also recorded: significantly inhibits osteoclastogenesis”, the sRANKL ([11]; 1 μM and 10 μM) was “significant decrease” and the OPG [11] was “increase”. For the same compound, the RANKL/OPG ratio [11] was “significantly inhibit”, the “mean group arthritogenic scoring value of both hind paws” value ([4]; 25 mg/kg, vs. Vehicle Control on Days 9, 11 and 14, respectively) was “statistically to extremely significant reductions (p<0.05, p<0.01, p<0.001)” and the treatment-related adverse reactions ([4]; 5 and 25 mg/kg PO once daily, 11 days, 14-day observation period) was “No obvious treatment-related adverse reactions”. The “mean group percentage change in hind paw thickness vs. arthritis induction initiation (Day 0)” value ([4]; 5 or 25 mg/kg, vs. Vehicle Control, Days 7, 9, 11 & 14) was “highly significantly lower (P<0.01)”.

Work on `CCOc1cc([C@@H](CS(C)(=O)=O)N2Cc3cccc(NC(=O)C4CC4)c3C2=O)ccc1OC` [Compound B, (S)-N-(2-(1-(3-ethoxy-4-methoxyphenyl)-2-(methylsulfonyl)ethyl)-3-oxoisoindolin-4-yl)cyclopropanecarboxamide] yielded a Cmax ([8]; 200-mg day-7) of 195 ng/mL and a concentration at 7 day ([8]; 200-mg day-7) of 40 ng/mL.
